Experimental data from patent US20010021697A1, “METHODS AND COMPOSITIONS FOR THE TREATMENT OF MAMMALIAN INFECTIONS EMPLOYING MEDICAMENTS COMPRISING HYMENOPTERA VENOM, PROTEINAGEOUS OR POLYPEPTIDE COMPONENTS THEREOF, OR ANALOGUES OF SUCH PROTEINACEOUS OR POLYPEPTIDE COMPONENTS” (priority 1987, published 2001).
Several values for one entry are separate records, joined by “and”; a condition that tells them apart may be missing. Equal entries are not always repeated.

Experiments:
Assay type in all cases: cell-based
[1] = tested on: kanamycin resistant S. aureus; assay: Checkerboard titration assay for synergy of honeybee venom with antibiotics (OD660 growth curves)
[2] = tested on: E. coli G1108E; assay: Checkerboard titration synergy assay of melittin analogues with polymyxin B; conditions: polymyxin B 6 units/ml, peptide 5 ug/ml, n = 6
[3] = tested on: Escherichia coli; assay: Growth curves with polymyxin B and bumble bee, yellowjacket or baldfaced hornet venom; conditions: for optical density, AVERAGE: AVERAGE line; for optical density: single replicates
Procedure: The activity of hymenoptera venom other than HBV was also determined for bumblee venom, yellow jacket venom and bald faced hornet venom, as shown below in Tables 8, 9

[4] = 0 hours after innoculation, YJ 5 ug/ml, BF 5 ug/ml, Pol B 3.125 U/ml alone, Pol B 5 U/ml in the combinations
[5] = 0 hours after innoculation, doses of what is present: Pol B 3.125 Units/ml, BB Venom 5 ug/ml
[6] = 0 hours after innoculation, doses of what is present: Pol B 6.25 Units/ml, BB Venom 20 ug/ml
[7] = 2 hours after innoculation, YJ 5 ug/ml, BF 5 ug/ml, Pol B 3.125 U/ml alone, Pol B 5 U/ml in the combinations
[8] = 2 hours after innoculation, doses of what is present: Pol B 3.125 Units/ml, BB Venom 5 ug/ml
[9] = 2 hours after innoculation, doses of what is present: Pol B 6.25 Units/ml, BB Venom 20 ug/ml
[10] = 4 hours after innoculation, YJ 5 ug/ml, BF 5 ug/ml, Pol B 3.125 U/ml alone, Pol B 5 U/ml in the combinations
[11] = 4 hours after innoculation, doses of what is present: Pol B 3.125 Units/ml, BB Venom 5 ug/ml
[12] = 4 hours after innoculation, doses of what is present: Pol B 6.25 Units/ml, BB Venom 20 ug/ml
[13] = 6 hours after innoculation, YJ 5 ug/ml, BF 5 ug/ml, Pol B 3.125 U/ml alone, Pol B 5 U/ml in the combinations
[14] = 6 hours after innoculation, doses of what is present: Pol B 3.125 Units/ml, BB Venom 5 ug/ml
[15] = 8 hours after innoculation, YJ 5 ug/ml, BF 5 ug/ml, Pol B 3.125 U/ml alone, Pol B 5 U/ml in the combinations
[16] = 8 hours after innoculation, doses of what is present: Pol B 3.125 Units/ml, BB Venom 5 ug/ml
[17] = 8 hours after innoculation, doses of what is present: Pol B 6.25 Units/ml, BB Venom 20 ug/ml

## Polymyxin B
[1]
  susceptibility to polymyxin B compared with the parent strain: more susceptible to polymyxin B than the parent strain
[1]; POLY B = 12.5, HBV = 0, T0
  MEAN A660: 0.009
[1]; POLY B = 12.5, HBV = 0, T2
  MEAN A660: 0.068
[1]; POLY B = 12.5, HBV = 0, T4
  MEAN A660: 0.266
[1]; POLY B = 12.5, HBV = 0, T6
  MEAN A660: 0.640
[1]; POLY B = 12.5, HBV = 0, T8
  MEAN A660: 0.826
[1]; POLY B = 12.5, HBV = 0, T12
  MEAN A660: 0.976
[1]; POLY B = 12.5, HBV = 0, T24
  MEAN A660: 0.962
[1]; POLY B = 25, HBV = 0, T0
  MEAN A660: 0.009
[1]; POLY B = 25, HBV = 0, T2
  MEAN A660: 0.068
[1]; POLY B = 25, HBV = 0, T4
  MEAN A660: 0.243
[1]; POLY B = 25, HBV = 0, T6
  MEAN A660: 0.629
[1]; POLY B = 25, HBV = 0, T8
  MEAN A660: 0.835
[1]; POLY B = 25, HBV = 0, T12
  MEAN A660: 1.008
[1]; POLY B = 25, HBV = 0, T24
  MEAN A660: 1.048
[1]; POLY B = 50, HBV = 0, T0
  MEAN A660: 0.009
[1]; POLY B = 50, HBV = 0, T2
  MEAN A660: 0.068
[1]; POLY B = 50, HBV = 0, T4
  MEAN A660: 0.208
[1]; POLY B = 50, HBV = 0, T6
  MEAN A660: 0.376
[1]; POLY B = 50, HBV = 0, T8
  MEAN A660: 0.567
[1]; POLY B = 50, HBV = 0, T12
  MEAN A660: 0.841
[1]; POLY B = 50, HBV = 0, T24
  MEAN A660: 0.968
[1]; POLY B = 100, HBV = 0, T0
  MEAN A660: 0.009
[1]; POLY B = 100, HBV = 0, T2
  MEAN A660: 0.068
[1]; POLY B = 100, HBV = 0, T4
  MEAN A660: 0.243
[1]; POLY B = 100, HBV = 0, T6
  MEAN A660: 0.629
[1]; POLY B = 100, HBV = 0, T8
  MEAN A660: 0.835
[1]; POLY B = 100, HBV = 0, T12
  MEAN A660: 1.008
[1]; POLY B = 100, HBV = 0, T24
  MEAN A660: 1.048
[2]; 0 hours after culture inoculation
  Optical densities (OD660), mean: .007
[2]; 2 hours after culture inoculation
  Optical densities (OD660), mean: .088
[2]; 4 hours after culture inoculation
  Optical densities (OD660), mean: .470
[2]; 6 hours after culture inoculation
  Optical densities (OD660), mean: .926
[2]; 8 hours after culture inoculation
  Optical densities (OD660), mean: 1.02
[2]; 10 hours after culture inoculation
  Optical densities (OD660), mean: 1.04
[2]; 12 hours after culture inoculation
  Optical densities (OD660), mean: 1.06
[3]; [4]
  optical density, AVERAGE: .038
  optical density: .038
[3]; [5]
  optical density, AVERAGE: .030
  optical density: .030
[3]; [6]
  optical density, AVERAGE: .030
  optical density: .030
[3]; [7]
  optical density, AVERAGE: .480
  optical density: .477 and .482
[3]; [8]
  optical density, AVERAGE: .649
  optical density: .654 and .642 and .652
[3]; [9]
  optical density, AVERAGE: .023
  optical density: .022 (2×) and .024
[3]; [10]
  optical density, AVERAGE: 1.03
  optical density: 1.03
[3]; [11]
  optical density, AVERAGE: 1.02
  optical density: 1.03 and 1.02 (2×)
[3]; [12]
  optical density, AVERAGE: .251
  optical density: .102 and .472 and .180
[3]; [13]
  optical density, AVERAGE: 1.07
  optical density: 1.07
[3]; [14]
  optical density, AVERAGE: 1.03
  optical density: 1.03
[3]; 6 hours after innoculation, doses of what is present: Pol B 6.25 Units/ml, BB Venom 20 ug/ml
  optical density, AVERAGE: .827
[3]; [15]
  optical density, AVERAGE: 1.08
  optical density: 1.08
[3]; [16]
  optical density, AVERAGE: 1.04
  optical density: 1.04
[3]; [17]
  optical density, AVERAGE: .960
  optical density: .960 and .950 and .970
[3]; 12 hours after innoculation, YJ 5 ug/ml, BF 5 ug/ml, Pol B 3.125 U/ml alone, Pol B 5 U/ml in the combinations
  optical density, AVERAGE: 1.14
